Data reported in publication PMC12749626, “Expediting hit-to-lead progression in drug discovery through reaction prediction and multi-dimensional optimization” (Nature Communications, 2025).
≈ marks a conversion by molar mass, not a printed value.

Tests used:
α2A-ADRENOCEPTOR = α2A-ADRENOCEPTOR (Homo sapiens, UniProt P08913); test: biochemical; settings: read-out: α2A-ADRENOCEPTOR percent activity or inhibition compared to the assay reference
ADENOSINE A3 REC. = ADENOSINE A3 REC. (Homo sapiens, UniProt P0DMS8); test: biochemical; settings: read-out: ADENOSINE A3 REC. percent activity or inhibition compared to the assay reference
ADENOSINE A3 REC., sequence (P0DMS8 whole entry): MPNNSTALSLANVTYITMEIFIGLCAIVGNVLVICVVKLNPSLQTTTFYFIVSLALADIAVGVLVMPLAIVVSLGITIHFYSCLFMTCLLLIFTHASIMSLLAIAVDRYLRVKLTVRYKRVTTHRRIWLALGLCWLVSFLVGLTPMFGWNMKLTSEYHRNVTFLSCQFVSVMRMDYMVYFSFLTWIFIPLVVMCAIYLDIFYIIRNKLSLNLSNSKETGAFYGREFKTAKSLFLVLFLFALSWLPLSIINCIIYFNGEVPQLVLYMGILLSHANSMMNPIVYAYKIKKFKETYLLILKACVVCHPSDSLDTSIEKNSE

DOPAMINE D1 REC. = DOPAMINE D1 REC. (Homo sapiens, UniProt P21728); test: biochemical; settings: read-out: DOPAMINE D1 REC. percent activity or inhibition compared to the assay reference
DOPAMINE D1 REC., sequence (P21728 whole entry): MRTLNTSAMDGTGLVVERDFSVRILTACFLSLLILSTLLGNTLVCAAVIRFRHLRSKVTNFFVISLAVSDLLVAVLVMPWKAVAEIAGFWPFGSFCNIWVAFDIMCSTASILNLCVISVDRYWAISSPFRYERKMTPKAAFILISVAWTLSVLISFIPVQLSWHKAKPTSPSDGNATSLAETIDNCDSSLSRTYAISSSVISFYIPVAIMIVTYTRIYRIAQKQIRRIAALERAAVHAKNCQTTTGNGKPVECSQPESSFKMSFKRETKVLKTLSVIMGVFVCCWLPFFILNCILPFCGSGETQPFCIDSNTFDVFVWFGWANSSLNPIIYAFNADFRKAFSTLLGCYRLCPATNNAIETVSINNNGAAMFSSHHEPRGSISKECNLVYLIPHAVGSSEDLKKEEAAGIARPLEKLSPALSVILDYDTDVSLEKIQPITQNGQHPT

PPARγ = PPARγ (Homo sapiens, UniProt P37231); test: biochemical; settings: read-out: PPARγ percent activity or inhibition compared to the assay reference
HISTAMINE H2 REC. = HISTAMINE H2 REC. (Homo sapiens, UniProt P25021); test: biochemical; settings: read-out: HISTAMINE H2 REC. percent activity or inhibition compared to the assay reference
CYP2C9 = CYP2C9 (Homo sapiens, UniProt P11712); test: Cytochrome P450 inhibition assay, CYP2C9; settings: liver microsomes
CYP2C9, sequence (P11712 whole entry): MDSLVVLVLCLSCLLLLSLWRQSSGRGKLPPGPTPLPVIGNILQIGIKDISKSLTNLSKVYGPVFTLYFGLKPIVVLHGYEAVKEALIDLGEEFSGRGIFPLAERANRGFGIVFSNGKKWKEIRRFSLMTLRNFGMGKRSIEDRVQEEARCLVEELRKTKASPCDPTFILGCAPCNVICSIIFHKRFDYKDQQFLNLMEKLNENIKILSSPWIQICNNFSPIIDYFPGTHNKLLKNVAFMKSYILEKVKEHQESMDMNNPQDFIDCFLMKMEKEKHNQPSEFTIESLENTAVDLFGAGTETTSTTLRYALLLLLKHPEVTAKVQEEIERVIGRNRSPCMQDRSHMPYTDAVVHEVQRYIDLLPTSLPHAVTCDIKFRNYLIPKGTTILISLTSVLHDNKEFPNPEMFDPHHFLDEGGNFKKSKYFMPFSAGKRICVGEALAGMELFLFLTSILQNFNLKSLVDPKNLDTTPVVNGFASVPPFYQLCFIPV

CHOLECYSTOKININ 1 REC. = CHOLECYSTOKININ 1 REC. (Homo sapiens, UniProt P32238); test: biochemical; settings: read-out: CHOLECYSTOKININ 1 REC. percent activity or inhibition compared to the assay reference
μ OPIOID REC. = μ OPIOID REC. (Homo sapiens, UniProt P35372); test: biochemical; settings: read-out: μ OPIOID REC. percent activity or inhibition compared to the assay reference
μ OPIOID REC., sequence (P35372 whole entry): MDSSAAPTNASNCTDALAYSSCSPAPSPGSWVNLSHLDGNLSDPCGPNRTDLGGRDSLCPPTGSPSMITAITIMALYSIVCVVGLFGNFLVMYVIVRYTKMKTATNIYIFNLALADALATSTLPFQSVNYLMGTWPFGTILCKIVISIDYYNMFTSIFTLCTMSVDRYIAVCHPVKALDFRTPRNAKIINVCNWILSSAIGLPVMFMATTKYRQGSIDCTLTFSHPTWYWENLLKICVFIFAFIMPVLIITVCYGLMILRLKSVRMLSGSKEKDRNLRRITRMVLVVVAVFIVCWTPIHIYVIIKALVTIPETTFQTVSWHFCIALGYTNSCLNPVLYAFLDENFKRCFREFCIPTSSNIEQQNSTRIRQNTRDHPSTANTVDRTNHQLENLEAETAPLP

ABL1 = ABL1 (Homo sapiens, UniProt P00519); test: biochemical; settings: read-out: ABL1 percent activity or inhibition compared to the assay reference
HISTAMINE H1 REC. = HISTAMINE H1 REC. (Homo sapiens, UniProt P35367); test: biochemical; settings: read-out: HISTAMINE H1 REC. percent activity or inhibition compared to the assay reference
HISTAMINE H1 REC., sequence (P35367 whole entry): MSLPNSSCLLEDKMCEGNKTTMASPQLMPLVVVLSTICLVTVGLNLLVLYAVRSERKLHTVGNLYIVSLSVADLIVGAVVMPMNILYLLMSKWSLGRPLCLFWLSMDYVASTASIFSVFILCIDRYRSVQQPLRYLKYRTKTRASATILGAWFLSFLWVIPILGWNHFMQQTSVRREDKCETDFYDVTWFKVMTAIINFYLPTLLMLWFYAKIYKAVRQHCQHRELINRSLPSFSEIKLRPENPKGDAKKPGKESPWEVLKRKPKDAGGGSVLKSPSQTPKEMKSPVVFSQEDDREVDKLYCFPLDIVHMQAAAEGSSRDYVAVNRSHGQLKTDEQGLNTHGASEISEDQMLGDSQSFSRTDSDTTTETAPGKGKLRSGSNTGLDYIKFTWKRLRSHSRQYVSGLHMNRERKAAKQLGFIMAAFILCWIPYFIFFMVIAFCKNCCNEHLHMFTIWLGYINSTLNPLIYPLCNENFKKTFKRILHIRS

κ OPIOID REC. = κ OPIOID REC. (Homo sapiens, UniProt P41145); test: biochemical; settings: read-out: κ OPIOID REC. percent activity or inhibition compared to the assay reference
ADENOSINE A1 REC. = ADENOSINE A1 REC. (Homo sapiens, UniProt P30542); test: biochemical; settings: read-out: ADENOSINE A1 REC. percent activity or inhibition compared to the assay reference
ADENOSINE A1 REC., sequence (P30542 whole entry): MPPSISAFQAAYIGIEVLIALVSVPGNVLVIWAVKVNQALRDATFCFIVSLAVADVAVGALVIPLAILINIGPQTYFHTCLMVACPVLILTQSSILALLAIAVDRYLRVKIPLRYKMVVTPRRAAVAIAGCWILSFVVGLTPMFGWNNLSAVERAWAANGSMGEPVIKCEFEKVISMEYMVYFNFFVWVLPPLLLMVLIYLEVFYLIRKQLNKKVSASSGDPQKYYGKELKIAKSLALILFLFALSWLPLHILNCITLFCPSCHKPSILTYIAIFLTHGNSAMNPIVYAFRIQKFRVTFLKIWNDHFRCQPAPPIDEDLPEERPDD

SEROTONIN TRANSPORTER = SEROTONIN TRANSPORTER (Homo sapiens, UniProt P31645); test: biochemical; settings: read-out: SEROTONIN TRANSPORTER percent activity or inhibition compared to the assay reference
[1] = Parallel Artificial Membrane Permeability (PAMPA); settings: for Papp at 18 h, 150 µM: PAMPA, pH 6
[…]. M2 = […]. M2 (Homo sapiens, UniProt P08172); test: biochemical; settings: read-out: […]. M2 percent activity or inhibition compared to the assay reference
[…]. M2, sequence (P08172 whole entry): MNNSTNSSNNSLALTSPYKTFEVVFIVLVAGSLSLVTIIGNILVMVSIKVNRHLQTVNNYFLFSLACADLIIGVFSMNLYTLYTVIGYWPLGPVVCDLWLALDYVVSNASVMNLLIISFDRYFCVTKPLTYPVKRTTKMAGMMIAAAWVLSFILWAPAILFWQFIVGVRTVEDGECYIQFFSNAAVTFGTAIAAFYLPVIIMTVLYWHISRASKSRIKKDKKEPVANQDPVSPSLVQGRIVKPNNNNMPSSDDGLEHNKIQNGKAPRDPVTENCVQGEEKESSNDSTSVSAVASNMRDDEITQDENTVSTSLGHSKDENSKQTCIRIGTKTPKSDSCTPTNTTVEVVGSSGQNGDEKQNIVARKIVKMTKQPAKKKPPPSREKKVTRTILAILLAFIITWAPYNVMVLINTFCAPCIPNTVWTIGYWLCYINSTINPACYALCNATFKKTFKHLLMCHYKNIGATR

Hepatocyte clearance = settings: for hepatocyte CLint at 1 µM: human, hepatocytes
[…]. M1 = […]. M1 (Homo sapiens, UniProt P11229); test: biochemical; settings: read-out: […]. M1 percent activity or inhibition compared to the assay reference
[…]. M1, sequence (P11229 whole entry): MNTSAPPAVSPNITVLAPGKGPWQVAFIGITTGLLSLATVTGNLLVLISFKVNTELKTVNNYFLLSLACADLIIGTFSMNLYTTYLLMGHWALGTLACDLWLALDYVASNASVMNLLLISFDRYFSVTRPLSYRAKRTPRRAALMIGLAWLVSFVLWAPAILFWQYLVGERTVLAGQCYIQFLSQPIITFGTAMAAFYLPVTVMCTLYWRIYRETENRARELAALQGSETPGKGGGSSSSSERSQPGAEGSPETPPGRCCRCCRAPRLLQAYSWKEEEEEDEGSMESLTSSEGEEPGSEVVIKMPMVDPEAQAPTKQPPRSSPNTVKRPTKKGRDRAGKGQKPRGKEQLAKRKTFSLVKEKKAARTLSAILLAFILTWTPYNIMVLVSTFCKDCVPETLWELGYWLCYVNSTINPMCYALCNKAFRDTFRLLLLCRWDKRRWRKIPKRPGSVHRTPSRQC

β1-ADRENOCEPTOR [2] = molecular target: T1, β1-ADRENOCEPTOR (Homo sapiens, UniProt P08588); test: biochemical; settings: read-out: β1-ADRENOCEPTOR percent activity or inhibition compared to the assay reference
T1 sequence (P08588 whole entry): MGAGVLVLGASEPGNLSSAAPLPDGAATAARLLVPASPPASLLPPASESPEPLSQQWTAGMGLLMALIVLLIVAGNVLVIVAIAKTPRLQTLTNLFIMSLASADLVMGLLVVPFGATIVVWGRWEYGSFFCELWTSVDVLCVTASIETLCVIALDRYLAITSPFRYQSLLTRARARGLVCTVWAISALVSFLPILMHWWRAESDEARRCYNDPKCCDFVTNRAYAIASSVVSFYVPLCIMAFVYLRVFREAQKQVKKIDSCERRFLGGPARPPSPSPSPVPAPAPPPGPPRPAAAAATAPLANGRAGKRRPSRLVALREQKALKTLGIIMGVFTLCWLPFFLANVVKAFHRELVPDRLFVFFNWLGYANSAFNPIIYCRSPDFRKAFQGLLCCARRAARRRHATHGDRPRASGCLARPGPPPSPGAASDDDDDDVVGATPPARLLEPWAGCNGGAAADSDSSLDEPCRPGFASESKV

ZAP70 = ZAP70 (Homo sapiens, UniProt P43403); test: biochemical; settings: read-out: ZAP70 percent activity or inhibition compared to the assay reference
ACETYLCHOLINESTERASE = ACETYLCHOLINESTERASE (Homo sapiens, UniProt P22303); test: biochemical; settings: read-out: ACETYLCHOLINESTERASE percent activity or inhibition compared to the assay reference
CYCLO OXYGENASE 2 = CYCLO OXYGENASE 2 (Homo sapiens, UniProt P35354); test: biochemical; settings: read-out: CYCLO OXYGENASE 2 percent activity or inhibition compared to the assay reference
CYCLO OXYGENASE 2, sequence (P35354 18-604): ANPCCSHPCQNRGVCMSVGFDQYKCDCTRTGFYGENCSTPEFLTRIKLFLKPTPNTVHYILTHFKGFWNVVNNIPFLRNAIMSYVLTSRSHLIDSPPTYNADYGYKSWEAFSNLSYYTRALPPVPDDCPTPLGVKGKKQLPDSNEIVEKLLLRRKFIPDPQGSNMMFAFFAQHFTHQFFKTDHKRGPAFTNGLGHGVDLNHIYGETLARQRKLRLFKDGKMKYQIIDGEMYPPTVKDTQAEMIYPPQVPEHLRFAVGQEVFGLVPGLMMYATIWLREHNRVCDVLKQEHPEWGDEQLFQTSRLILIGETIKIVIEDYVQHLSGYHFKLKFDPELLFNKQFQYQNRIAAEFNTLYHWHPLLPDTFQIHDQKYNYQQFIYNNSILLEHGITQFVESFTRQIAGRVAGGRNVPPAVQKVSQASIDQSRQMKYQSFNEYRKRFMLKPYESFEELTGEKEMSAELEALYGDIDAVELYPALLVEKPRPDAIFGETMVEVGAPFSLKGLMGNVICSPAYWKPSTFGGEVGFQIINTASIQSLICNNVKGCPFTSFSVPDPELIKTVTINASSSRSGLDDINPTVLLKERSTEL

GSK-3B = GSK-3B (Homo sapiens, UniProt P49841); test: biochemical; settings: read-out: GSK-3B percent activity or inhibition compared to the assay reference
5HT2A = 5HT2A (Homo sapiens, UniProt P28223); test: biochemical; settings: read-out: 5HT2A percent activity or inhibition compared to the assay reference
5HT2B [3] = molecular target: T2, 5HT2B (Homo sapiens, UniProt P41595); test: biochemical; settings: read-out: 5HT2B percent activity or inhibition compared to the assay reference
T2 sequence (P41595 whole entry): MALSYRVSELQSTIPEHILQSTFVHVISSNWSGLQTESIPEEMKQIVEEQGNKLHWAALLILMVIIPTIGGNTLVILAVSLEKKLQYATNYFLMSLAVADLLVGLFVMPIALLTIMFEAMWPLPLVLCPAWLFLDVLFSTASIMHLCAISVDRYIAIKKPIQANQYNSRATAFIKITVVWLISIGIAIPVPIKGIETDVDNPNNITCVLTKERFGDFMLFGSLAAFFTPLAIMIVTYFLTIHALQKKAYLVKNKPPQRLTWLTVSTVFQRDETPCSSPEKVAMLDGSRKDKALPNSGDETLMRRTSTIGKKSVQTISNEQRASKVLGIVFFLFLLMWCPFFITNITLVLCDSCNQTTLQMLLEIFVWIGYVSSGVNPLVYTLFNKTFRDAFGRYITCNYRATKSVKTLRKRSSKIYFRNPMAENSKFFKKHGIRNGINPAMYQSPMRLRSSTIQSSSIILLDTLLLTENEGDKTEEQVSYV

PCP NMDA REC. = settings: 10 uM; n=2
GABA-A = settings: 10 uM; n=2
Solubility in FESSIF = type: physicochemical
MUSCULAR NICOTINIC REC. = settings: 10 uM; n=2
CA2+ CHANNEL (L-TYPE) = settings: 10 uM; n=2
A[…]. ENZ. = A[…]. ENZ. (Homo sapiens, UniProt P12821); settings: 10 uM; n=2
5HT2B [4] = molecular target: T2, 5HT2B; settings: 10 uM; n=2
β1-ADRENOCEPTOR [5] = molecular target: T1, β1-ADRENOCEPTOR; settings: 10 uM; n=2

SMILES | inhibition at 10 µM (α2A-ADRENOCEPTOR) [%] | inhibition at 10 µM (ADENOSINE A3 REC.) [%] | inhibition at 10 µM (DOPAMINE D1 REC.) [%] | inhibition at 10 µM (PPARγ) [%] | inhibition at 10 µM (HISTAMINE H2 REC.) [%] | CYP2C9 Inhibition (CYP2C9) [%] | inhibition at 10 µM (CHOLECYSTOKININ 1 REC.) [%] | inhibition at 10 µM (μ OPIOID REC.) [%] | inhibition at 10 µM (ABL1) [%] | inhibition at 10 µM (HISTAMINE H1 REC.) [%] | inhibition at 10 µM (κ OPIOID REC.) [%] | inhibition at 10 µM (ADENOSINE A1 REC.) [%] | inhibition at 10 µM (SEROTONIN TRANSPORTER) [%] | Papp at 18 h, 150 µM [1] [×10⁻⁶ cm/s] | inhibition at 10 µM ([…]. M2) [%] | hepatocyte CLint at 1 µM (Hepatocyte clearance) [µL/min/1e6 cells] | inhibition at 10 µM ([…]. M1) [%] | inhibition at 10 µM (β1-ADRENOCEPTOR [2]) [%] | inhibition at 10 µM (ZAP70) [%] | inhibition at 10 µM (ACETYLCHOLINESTERASE) [%] | other results
O=C(c1ccc2nc(-c3cccnc3)oc2c1)N1CCN(c2nc3ccccc3c(=O)[nH]2)CC1 [Compound 17] | 7 | 13 | 3 | -4 | 1 | 2 | -12 | 48 | 2 | 13 | 15 | 70 | -5 | 4 | 27 | 7.3 | 9 | 4 | -2 | 3 | inhibition at 10 µM (CYCLO OXYGENASE 2): 20%; inhibition at 10 µM (GSK-3B): -21%; inhibition at 10 µM (5HT2A): 7%; inhibition at 10 µM (5HT2B [3]): 28%
O=C(c1ccc2nc(-c3cnccc3C3CCCC3)oc2c1)N1CCN(c2nc3nc(Cl)ccc3o2)CC1 [Compound 23] | 3 | 21 | -1 | 7 | -1 | 45 | 9 | 21 | -8 | 11 | 18 | 24 | 10 | 4 | 40 | 179 | 10 | 2 | -27 | -1 | PCP NMDA REC. percent activity or inhibition compared to the assay reference (PCP NMDA REC.): 7%; GABA-A percent activity or inhibition compared to the assay reference (GABA-A): 16%; solubility (Solubility in FESSIF): 1.9 µg/mL (≈ 3.59 µM); inhibition at 10 µM (CYCLO OXYGENASE 2): 4%; MUSCULAR NICOTINIC REC. percent activity or inhibition compared to the assay reference (MUSCULAR NICOTINIC REC.): 0%; CA2+ CHANNEL (L-TYPE) percent activity or inhibition compared to the assay reference (CA2+ CHANNEL (L-TYPE)): 73%; inhibition at 10 µM (GSK-3B): -20%; inhibition at 10 µM (5HT2A): 2%; inhibition at 10 µM (5HT2B [3]): 3%
O=C(c1ccc2nc(-c3cnccc3C3(C4CCC4)CC3)oc2c1)N1CCN(c2nc3nc(Cl)ccc3o2)CC1 [Compound 27] | – | – | – | – | – | 73 | – | – | – | – | – | – | – | – | – | – | – | – | – | – | PCP NMDA REC. percent activity or inhibition compared to the assay reference (PCP NMDA REC.): 8%; A[…]. ENZ. percent activity or inhibition compared to the assay reference (A[…]. ENZ.): -12%; GABA-A percent activity or inhibition compared to the assay reference (GABA-A): 69%; 5HT2B percent activity or inhibition compared to the assay reference (5HT2B [4]): 10%; PAMPA permeability ([1]; donor buffer pH 6.0, 18-hour incubation): 0.9 10^-6 cm/s; Hepatocyte clearance (Hepatocyte clearance; cryopreserved hepatocytes of human origin, 1 µM compound): 101.0 µL/min/10^6 cells; MUSCULAR NICOTINIC REC. percent activity or inhibition compared to the assay reference (MUSCULAR NICOTINIC REC.): 2%; CA2+ CHANNEL (L-TYPE) percent activity or inhibition compared to the assay reference (CA2+ CHANNEL (L-TYPE)): 90%; β1-ADRENOCEPTOR percent activity or inhibition compared to the assay reference (β1-ADRENOCEPTOR [5]): 4%
O=C(c1ccc2nc(-c3cnccc3C3CCCC3)oc2c1)N1CC2(CC(n3cnc(C4CC4)n3)C2)C1 [Compound 29] | 18 | 28 | 7 | 16 | 11 | 70 | 8 | 30 | -5 | 18 | 32 | 9 | -11 | 5.9 | 33 | 181 | 8 | 7 | 5 | 0 | PCP NMDA REC. percent activity or inhibition compared to the assay reference (PCP NMDA REC.): -1%; GABA-A percent activity or inhibition compared to the assay reference (GABA-A): 61%; cell permeability ([1]; in words, SI2.2, Fig. S1 (PAMPA vs LipE)): potent cell permeability; solubility (Solubility in FESSIF): 25 µg/mL (≈ 50.5 µM); inhibition at 10 µM (CYCLO OXYGENASE 2): 23%; MUSCULAR NICOTINIC REC. percent activity or inhibition compared to the assay reference (MUSCULAR NICOTINIC REC.): 24%; CA2+ CHANNEL (L-TYPE) percent activity or inhibition compared to the assay reference (CA2+ CHANNEL (L-TYPE)): 32%; inhibition at 10 µM (GSK-3B): -19%; inhibition at 10 µM (5HT2A): 10%; inhibition at 10 µM (5HT2B [3]): 55%
